Reference: patent publication US20260015333A1, “COMPOUNDS AND METHODS FOR INHIBITION OF THE EVOLUTION OF […]” (priority 2022, published 2026)

Biological target: T1, E. coli RNAP (Escherichia coli, UniProt P0A7Z4+P0A800+P0A8T7+P0A8V2)
T1 construct: purchased NEB
Assay: RNAP displacement assay, control reactions in the absence of Mfd
Assay type: biochemical
Conditions: RNAP with 12.5 μM ARM-1, no Mfd
Experimental: FIGS. 2A-2D depict how ARM-1 affects Mfd's biochemical activity. FIG. 2A depicts how the kd of ARM-1 was determined using microscale thermophoresis. Data shown represent a minimum of three independent experiments. FIG. 2B depicts a NADH-coupled ATPase assay. ATP hydrolysis by Mfd was coupled to NADH oxidation. Phosphoenolpyruvate is converted to pyruvate by pyruvate kinase, transferring a phosphate group onto ADP, which is only present in the reaction following ATP hydrolysis by Mfd. Pyruvate is then converted to lactate by lactate dehydrogenase, oxidizing NADH to NAD^+. Absorbance at 340 nm by NADH is used to monitor the reaction. Data shown represent a minimum of 3 biological replicates. FIG. 2C depicts a transcription roadblock assay. A P32-labled 176 bp PCR fragment was incubated with E. coli RNAP along with saturating concentrations of ATP, GTP, and UTP. 100 nM S. typhimurium ST19 Mfd preincubated with indicated concentrations of ARM-1 was added and the reaction allowed to proceed for 6 minutes. DNA products were then resolved on a polyacrylamide gel and analyzed by phosphorimaging. […] Quantification of these gels is shown below each lane. […]
Mfd translocates along double-stranded DNA and dislodges stalled RNAP complexes. […] When quantified, a ratio of EC to IC of approximately 1 was observed, which was consistent with prior work. […]

T1 sequence (P0A7Z4 whole entry): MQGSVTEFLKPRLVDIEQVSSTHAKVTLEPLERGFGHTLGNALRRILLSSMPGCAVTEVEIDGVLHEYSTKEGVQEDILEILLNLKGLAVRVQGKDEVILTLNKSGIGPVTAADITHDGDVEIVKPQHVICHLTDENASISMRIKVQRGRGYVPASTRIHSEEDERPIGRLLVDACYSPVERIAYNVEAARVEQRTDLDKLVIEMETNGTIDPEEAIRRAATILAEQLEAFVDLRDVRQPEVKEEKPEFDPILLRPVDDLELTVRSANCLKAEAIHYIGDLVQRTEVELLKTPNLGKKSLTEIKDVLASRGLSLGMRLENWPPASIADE
T1 sequence (P0A8V2 whole entry): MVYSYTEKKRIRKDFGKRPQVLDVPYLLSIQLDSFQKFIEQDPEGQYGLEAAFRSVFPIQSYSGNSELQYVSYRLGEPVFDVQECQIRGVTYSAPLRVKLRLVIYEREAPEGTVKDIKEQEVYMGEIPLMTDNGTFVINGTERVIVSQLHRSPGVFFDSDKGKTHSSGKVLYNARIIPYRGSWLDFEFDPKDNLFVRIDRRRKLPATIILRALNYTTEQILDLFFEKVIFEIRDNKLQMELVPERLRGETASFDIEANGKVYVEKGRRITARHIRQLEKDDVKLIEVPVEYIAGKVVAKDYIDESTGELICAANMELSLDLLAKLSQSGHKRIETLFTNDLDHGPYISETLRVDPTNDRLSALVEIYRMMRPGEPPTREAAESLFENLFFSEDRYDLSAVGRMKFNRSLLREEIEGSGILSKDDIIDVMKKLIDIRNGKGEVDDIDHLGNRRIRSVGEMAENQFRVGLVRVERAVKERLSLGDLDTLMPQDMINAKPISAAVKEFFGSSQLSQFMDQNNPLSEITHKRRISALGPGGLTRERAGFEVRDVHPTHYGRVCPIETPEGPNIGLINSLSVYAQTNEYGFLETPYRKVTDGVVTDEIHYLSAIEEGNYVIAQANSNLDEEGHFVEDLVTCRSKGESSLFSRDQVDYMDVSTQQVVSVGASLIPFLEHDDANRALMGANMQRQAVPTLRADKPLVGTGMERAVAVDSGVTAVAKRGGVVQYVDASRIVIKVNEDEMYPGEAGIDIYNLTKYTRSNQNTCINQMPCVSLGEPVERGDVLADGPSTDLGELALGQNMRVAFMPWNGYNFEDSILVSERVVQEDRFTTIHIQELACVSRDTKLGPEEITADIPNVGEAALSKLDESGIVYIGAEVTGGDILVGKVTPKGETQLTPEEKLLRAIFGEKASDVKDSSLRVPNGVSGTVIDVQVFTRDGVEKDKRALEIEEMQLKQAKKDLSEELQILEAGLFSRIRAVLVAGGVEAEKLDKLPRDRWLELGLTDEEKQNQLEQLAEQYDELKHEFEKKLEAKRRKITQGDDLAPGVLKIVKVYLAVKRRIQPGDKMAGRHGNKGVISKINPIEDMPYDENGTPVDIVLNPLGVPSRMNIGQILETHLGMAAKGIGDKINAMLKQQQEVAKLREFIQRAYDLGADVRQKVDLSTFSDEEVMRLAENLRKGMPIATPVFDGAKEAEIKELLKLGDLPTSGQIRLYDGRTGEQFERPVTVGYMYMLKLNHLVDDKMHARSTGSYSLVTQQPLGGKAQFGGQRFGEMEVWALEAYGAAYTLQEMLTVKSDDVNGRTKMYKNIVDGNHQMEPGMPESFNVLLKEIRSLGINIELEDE
T1 sequence (P0A800 2-91): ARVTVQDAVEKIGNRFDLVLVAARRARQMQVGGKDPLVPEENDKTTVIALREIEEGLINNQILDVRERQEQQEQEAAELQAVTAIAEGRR
T1 sequence (P0A8T7 whole entry): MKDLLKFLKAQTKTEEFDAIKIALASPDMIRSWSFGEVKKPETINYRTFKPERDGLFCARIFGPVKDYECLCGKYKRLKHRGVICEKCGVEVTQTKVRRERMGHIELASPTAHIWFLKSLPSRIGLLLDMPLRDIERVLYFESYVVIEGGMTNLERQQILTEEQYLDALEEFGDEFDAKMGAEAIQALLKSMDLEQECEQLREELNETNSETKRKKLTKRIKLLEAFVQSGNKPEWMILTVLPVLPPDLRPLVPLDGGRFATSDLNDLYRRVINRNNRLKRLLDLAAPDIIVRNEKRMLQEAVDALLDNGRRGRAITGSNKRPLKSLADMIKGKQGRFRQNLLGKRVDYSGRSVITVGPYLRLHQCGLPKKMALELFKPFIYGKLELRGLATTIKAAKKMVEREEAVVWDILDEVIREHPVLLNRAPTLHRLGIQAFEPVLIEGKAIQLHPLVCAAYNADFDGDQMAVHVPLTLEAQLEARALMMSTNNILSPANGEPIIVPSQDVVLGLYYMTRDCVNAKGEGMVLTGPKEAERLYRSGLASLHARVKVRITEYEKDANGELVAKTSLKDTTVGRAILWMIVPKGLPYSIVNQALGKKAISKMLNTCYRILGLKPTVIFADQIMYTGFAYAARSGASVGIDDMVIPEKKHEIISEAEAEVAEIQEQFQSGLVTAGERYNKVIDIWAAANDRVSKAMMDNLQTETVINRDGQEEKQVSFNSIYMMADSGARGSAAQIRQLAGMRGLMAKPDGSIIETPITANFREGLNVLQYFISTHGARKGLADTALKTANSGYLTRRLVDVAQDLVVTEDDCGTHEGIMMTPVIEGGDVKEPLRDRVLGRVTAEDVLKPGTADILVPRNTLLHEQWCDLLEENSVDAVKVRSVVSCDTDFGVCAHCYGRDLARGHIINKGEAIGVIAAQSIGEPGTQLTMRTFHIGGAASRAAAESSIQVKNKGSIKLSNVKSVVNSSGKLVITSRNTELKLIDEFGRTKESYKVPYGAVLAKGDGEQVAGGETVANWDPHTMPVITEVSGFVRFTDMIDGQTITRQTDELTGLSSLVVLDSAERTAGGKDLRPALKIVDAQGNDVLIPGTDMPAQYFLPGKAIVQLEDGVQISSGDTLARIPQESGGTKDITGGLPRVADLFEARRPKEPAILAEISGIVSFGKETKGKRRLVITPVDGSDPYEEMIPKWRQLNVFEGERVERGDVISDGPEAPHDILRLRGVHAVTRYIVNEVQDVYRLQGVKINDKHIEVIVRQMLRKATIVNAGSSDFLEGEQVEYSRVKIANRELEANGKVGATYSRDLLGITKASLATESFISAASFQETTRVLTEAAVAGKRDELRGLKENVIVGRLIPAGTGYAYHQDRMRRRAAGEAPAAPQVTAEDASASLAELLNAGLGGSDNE

Cc1cc(Br)ccc1-c1ccc(CNCCCN(C)C)o1 [ARM-1, N^1-((5-(4-bromo-2-methylphenyl)furan-2-yl)methyl)-N^3,N^3-dimethylpropane-1,3-diamine]
changes on RNAP complexes in the absence of Mfd: did not have any detectable changes
